Data: patent US12122833B2, “Combination therapies of HDAC inhibitors and PD-1 inhibitors” (HUYABIO International, LLC, priority 2016, dated 2024)

How the values were obtained:
[1] = tested on: MC38 murine colon carcinoma cells; test: Example 2: tumor growth delay, MC38 tumors (5×10^5 cells) in C57BL/6 mice; format: in vivo, mouse; conditions: HBI-8000 50 mg/kg p.o. qd×21, anti-PD-1 5 mg/kg i.p. biwk×3
Experimental: Animals that exited the study for tumor volume endpoint were documented as euthanized for tumor progression (TP), with the date of euthanasia. The time to endpoint (TTE) for analysis was calculated for each mouse by the following equation:
[formula] where TTE is expressed in days, endpoint volume is expressed in mm^3, b is the intercept, and m is the slope of the line obtained by linear regression of a log-transformed tumor growth data set. The data set consisted of the first observation that exceeded the endpoint volume used in analysis and the three consecutive observations that immediately preceded the attainment of this endpoint volume. The calculated TTE is usually less than the TP date, the day on which the animal was euthanized for tumor burden. […] In instances in which the log-transformed calculated TTE preceded the day prior to reaching endpoint or exceeded the day of reaching tumor volume endpoint, a linear interpolation was performed to approximate the TTE. […]
Treatment Outcome: Treatment outcome was evaluated from tumor growth delay (TGD), which is defined as the increase in the median time to endpoint (TTE) in a treatment group compared to the control group: TGD=T−C expressed in days, or as a percentage of the median TTE of the control group: […]
Treatment Efficacy: Treatment efficacy may be determined from the tumor volumes of animals remaining in the study on the last day. […]

[2] = molecular target: HDAC 3 (Homo sapiens, UniProt O15379); conditions: reported by Ning et al.; cited from earlier work
Chain of HDAC 3 (O15379 whole entry): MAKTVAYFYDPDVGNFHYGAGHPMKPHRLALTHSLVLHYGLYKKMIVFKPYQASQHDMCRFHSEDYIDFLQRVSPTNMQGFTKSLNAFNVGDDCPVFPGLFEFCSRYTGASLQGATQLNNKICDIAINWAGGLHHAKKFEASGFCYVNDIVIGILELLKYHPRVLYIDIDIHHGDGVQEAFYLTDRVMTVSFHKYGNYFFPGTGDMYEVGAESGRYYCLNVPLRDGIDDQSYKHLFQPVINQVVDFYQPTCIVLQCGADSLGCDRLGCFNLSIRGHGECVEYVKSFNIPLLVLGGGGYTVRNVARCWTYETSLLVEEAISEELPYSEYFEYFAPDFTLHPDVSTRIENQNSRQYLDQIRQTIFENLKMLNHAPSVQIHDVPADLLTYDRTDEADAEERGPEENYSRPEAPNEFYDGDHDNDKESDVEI
Chain of HDAC 3 (Q9Y618 395-489 partner limits assumed): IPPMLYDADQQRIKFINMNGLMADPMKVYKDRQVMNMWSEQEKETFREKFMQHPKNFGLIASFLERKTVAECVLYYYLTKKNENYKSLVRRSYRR

For `Nc1cc(F)ccc1NC(=O)c1ccc(CNC(=O)/C=C/c2cccnc2)cc1` [HBI-8000, N-(2-amino-4-fluorophenyl)-4-[[[(2E)-1-oxo-3-(3-pyridinyl)-2-propen-1-yl]amino]methyl]benz amide], the “Median TTE” value ([1]; endpoint 1000 mm^3 or Day 50, n=10) is given as 19.4 days, the “% TGD” value ([1]; vs vehicle) is given as 19% and the “activity at HDAC 3 compared with Entinostat” value [2] is given as “more active than Entinostat”. The “inhibition of HDAC 3” value [2] was “low nanomolar concentrations”.
